Several values for one entry are separate records, joined by “and”; a condition that tells them apart may be missing. Equal entries are not always repeated. Where two headings read alike, the source gives them in different places.
Experiments:
[1] = Table 1; capacity factor extrapolated to 0% methanol; average of three to five determinations; pH 7.4
physchem = conditions: pH 7.4
[2] = Reference logDoct at pH 7.4: literature shake-flask or countercurrent data, shake-vial and pH-metric determinations, averaged
[3] = Shake-vial logDoct, Procedure A (octanol / MOPS buffer); assay type: physicochemical; conditions: concentration decreased from 1.5 to 0.1 mg, 50:2 octanol:buffer
Text: (§1) The vials were shaken at least overnight.

[4] = Semi-automated shake-vial logDoct, Procedure B (1:1 n-octanol / phosphate buffer pH 7.4); assay type: physicochemical; conditions: duplicate determinations
Text: as §1

[5] = literature value (ref. 22); cited from earlier work
[6] = Table 1, own shake-vial (Procedure A/B) and/or potentiometric determinations only

COc1ccc2c(c1)N(C[C@H](C)CN(C)C)c1ccccc1S2 [Methotrimeprazine]
log k′w [1]: 2.10
chromatographic logD (physchem): 2.57
logDoct [2, 6]: 2.77

CCN(CC)CCNC(=O)c1cc(S(C)(=O)=O)ccc1OC [Tiapride]
log k′w [1]: −0.58
chromatographic logD (physchem): -0.45
logDoct [2, 6]: −0.90

O=c1n(CCCN2CCN(c3cccc(Cl)c3)CC2)nc2ccccn12 [Trazodone]
log k′w [1]: 2.45
chromatographic logD (physchem): 2.97
logDoct [2, 6]: 2.54

CNC(=NCCSCc1csc(N=C(N)N)n1)NC#N [Tiotidine]
log k′w [1]: 0.57
chromatographic logD (physchem): 0.85
logDoct [2, 6]: 0.57

Oc1ncnc2[nH]ncc12 [Allopurinol]
log k′w [1]: −0.27
chromatographic logD (physchem): -0.1
logDoct ([2]; Table 1, average of own shake-vial/potentiometric determinations and literature references): −0.44

CC(C)N(CCC(C(N)=O)(c1ccccc1)c1ccccn1)C(C)C (stereo not shown) [Disopyramide]
log k′w [1]: −1.21
chromatographic logD (physchem): -1.15
logDoct [2, 6]: −0.66

NS(=O)(=O)c1cc2c(cc1Cl)NC(C(Cl)Cl)NS2(=O)=O (stereo not shown) [Trichlormethiazide]
log k′w [1]: 0.26
chromatographic logD (physchem): 0.5
logDoct [2, 6]: 0.43

N=C(N)NCC1COc2ccccc2O1 (stereo not shown) [guanoxan]
logDoct [3]: −1.6 to −1.0
logDoct [4]: −0.1 and −0.3
chromatographic logD (physchem): -0.3
logDoct [5]: −0.83

Cc1ncc(-c2csc(N=C(N)N)n2)[nH]1 [Zaltidine]
log k′w [1]: 0.53
chromatographic logD (physchem): 0.8
logDoct [2, 6]: 0.74

NS(=O)(=O)c1cc2c(cc1Cl)NC(C1CC3C=CC1C3)NS2(=O)=O (stereo not shown) [Cyclothiazide]
log k′w [1]: 2.15
chromatographic logD (physchem): 2.63
logDoct [2, 6]: 2.09

Reference: patent US20020161528A1, “Tool for lipophilicity determination in drug discovery basic and neutral compounds” (Pfizer Inc., priority 2001, published 2002)
